Measurements published in PMC4873738, “A Small Molecule Inhibitor of PDK1/PLCγ1 Interaction Blocks Breast and Melanoma Cancer Cell Invasion” (Scientific Reports, 2016).

Target: T1, 3-phosphoinositide-dependent protein kinase 1 (PDK1) (Homo sapiens, UniProt O15530)
T1 construct: gene PDPK1; PH domain, amino-acids 411-552
T1 sequence (O15530 411-552): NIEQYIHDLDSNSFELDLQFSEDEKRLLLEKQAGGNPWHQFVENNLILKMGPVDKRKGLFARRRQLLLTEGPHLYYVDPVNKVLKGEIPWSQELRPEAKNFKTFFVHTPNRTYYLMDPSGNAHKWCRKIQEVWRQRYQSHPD
Test: isothermal titration calorimetry with purified recombinant PH domain, […] °C, four experiments, n = […]
Format: binding

Kd: 0.109 ± 0.044 µM
Compound: O=P(O)(O)O[C@@H]1[C@@H](OP(=O)(O)O)[C@H](OP(=O)(O)O)[C@H](OCc2ccccc2)[C@H](OP(=O)(O)O)[C@H]1OP(=O)(O)O [2-O-Bn-InsP5, 2-O-benzyl-myo-inositol 1,3,4,5,6-pentakisphosphate]
